Patent publication US20240246916A1, “7-NITRO-8-HYDROXYQUINOLINE DERIVATIVES, PREPARATION METHOD THEREFORE AND MEDICAL USE THEREOF” (Jiangsu Yahong Meditech Co., Ltd., priority 2021, published 2024)
Values after ≈ are worked out from the molar mass of the structure shown.

What was measured:
Assay type in all cases: cell-based
[1] = tested on: Mouse prostate cancer cell line RM1; assay: Inhibitory activity on cancer cells, CellTiter-Glo viability, RM1; conditions: 72 hours treatment
Protocol: (§1) HUVEC (purchased from Allcells Biological Technology (Shanghai) Co., Ltd.); UM-UC-3 (ATCC); LNCaP (ATCC); RM-1 (purchased from Nanjing Cobioer Biosciences Co., Ltd.) (1) On the first day, the cells were seeded in a 96-well plate, and the previous medium was poured off. 5 mL of DPBS was added to wash the cells, and then removed by a pipette and discarded. Then, 1 mL of trypsin (0.25%) was added, and the plate was placed in a cell culture incubator at 37 °C, 5% CO2 for digestion, and taken out after about 2 to 5 minutes. New corresponding medium was added, and pipetted to resuspend the cells evenly, and the cells were then counted with an automated cell counter. Regarding HUVEC, the medium used was endothelial cell complete medium; regarding UM-UC-3, the medium used was 89 v % EMEM+10 v % fetal bovine serum+1 v % penicillin-streptomycin double anti-body; regarding LNcaP, the medium used was 89 v % RPM11640+10 v % fetal bovine serum+1 v % penicillin-streptomycin double anti-body; and regarding RM1, the medium used was 89 v % DMEM+10 v % fetal bovine serum+1 v % penicillin-streptomycin double anti-body. (2) HUVEC cells were seeded in columns 1 to 11 of a 96-well plate (Corning, Cat. No. 3610) at a density of 2000 cells per well in 100 μL of medium, and the medium free of cell was added to the wells of column 12. The other three types of cells were also seeded, wherein UM-UC-3 and RM-1 cells were seeded at a density of 3000 cells per well, and LNCap cells were seeded at a density of 5000 cells per well. Then, the plate was placed in an incubator at 37° C., 5% CO2 for 24 hours. (3) On the second day, the compounds of the present invention and the reference drug nitroxoline (obtained according to the preparation method disclosed in the prior art) were diluted in gradient (2.5 folds, started at 100 μmol) to obtain 8 dose points (there were a total of 8 columns of wells; the first column of wells had the highest concentration, the concentration decreased in turn, and the last column of wells had the lowest concentration). 10 μL of the compound diluted in gradient was added to the 100 μL of cells in column 1 to column 10 with an 8-channel pipette. 10 μL of the corresponding medium containing 0.33 v % DMSO was added to column 11 and column 12. The plate was incubated in an incubator at 37° C., 5% CO2 for 72 hours (note: column 11 was used as MAX well with cells and no compounds; and column 12 was used as MIN well with no cells and no compounds). (4) After treating with the compounds of the present invention for 72 hours, the cell viability detection reagents in the above CellTiter-Glo® assay kit were added to the 96-well plate at 50 μL per well according to the instructions. The plate was shaken on a shaker in the dark for 5 to 10 minutes, and then the cell activity was determined by a multifunctional microplate reader. Finally, the growth inhibition of the compounds of the present invention on the cells was plotted by XLFIT 5.3 software, and the IC50 values of the compounds of the present invention were calculated.

[2] = tested on: Prostate cancer cell line LNcaP; assay: Inhibitory activity on cancer cells, CellTiter-Glo viability, LNcaP; conditions: Homo sapiens, 72 hours treatment
Protocol: as §1

[3] = tested on: Acinetobacter baumannii (carbapenem-resistant clinical isolates; ATCC19606); assay: MIC by micro broth dilution (CLSI), Acinetobacter baumannii; conditions: Acinetobacter baumannii; for MIC50 / MIC90: ATCC19606, Clinical strain; for MIC50: read-out: MIC50; for MIC90: read-out: MIC90; for MIC: Standard strain ATCC19606, read-out: MIC
Outline: (§2)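 Compounds were dissolved in DMSO and tested at 128 to 0.06 mg/L in cation-adjusted Mueller-Hinton broth. Overnight cultures were set to 0.5 McFarland, diluted 100-fold to a final 10^5 CFU/mL, and incubated at 35±2° C for 20 hours in air. Results were interpreted by CLSI 2019 M100 criteria.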

[4] = tested on: Escherichia coli (carbapenem-resistant clinical isolate; ATCC25922); assay: MIC by micro broth dilution (CLSI), Escherichia coli; conditions: Escherichia coli; for MIC50 / MIC90: ATCC25922, Clinical strain; for MIC50: read-out: MIC50; for MIC90: read-out: MIC90; for MIC: Standard strain ATCC25922, read-out: MIC
Outline: as §2

[5] = tested on: Endothelial cell line HUVEC; assay: Inhibitory activity on cells, CellTiter-Glo viability, HUVEC; conditions: Homo sapiens, 72 hours treatment
Protocol: as §1

[6] = tested on: Bladder cancer cell line UM-UC-3; assay: Inhibitory activity on cancer cells, CellTiter-Glo viability, UM-UC-3; conditions: Homo sapiens, UMUC3, 72 hours treatment
Protocol: as §1

[7] = tested on: Staphylococcus aureus (methicillin-resistant and sensitive clinical isolates; ATCC29213); assay: MIC by micro broth dilution (CLSI), Staphylococcus aureus; conditions: for MIC50 / MIC90: Clinical strain; for MIC50: read-out: MIC50; for MIC90: read-out: MIC90; for MIC: Standard strain ATCC29213, read-out: MIC
Outline: as §2

| Compound | IC50 [1] | IC50 [2] | MIC50 [3] | MIC90 [3] | MIC [3] | MIC50 [4] | MIC90 [4] | MIC [4] | IC50 [5] | IC50 [6] | MIC50 [7] | MIC90 [7] | MIC [7] |
| --- | --- | --- | --- | --- | --- | --- | --- | --- | --- | --- | --- | --- | --- |
| CN(C)C(=O)N1CCN(c2ccnc3c(O)c([N+](=O)[O-])ccc23)CC1 [Example 25, 4-(8-Hydroxy-7-nitroquinolin-4-yl)-N,N-dimethylpiperazine-1-carboxamide] | 47.2 µM | 32.4 µM | 128 µg/mL (≈ 371 µM) | > 128 µg/mL | > 128 µg/mL | 128 µg/mL (≈ 371 µM) | > 128 µg/mL | 32 µg/mL (≈ 92.7 µM) | 47.6 µM | 44.5 µM | 16 µg/mL (≈ 46.3 µM) | 16 µg/mL (≈ 46.3 µM) | > 128 µg/mL |
| CCOc1ccnc2c(O)c([N+](=O)[O-])cc(Cl)c12 [Example 61, 5-Chloro-4-ethoxy-7-nitroquinolin-8-ol] | 4.26 µM | 5.22 µM | > 128 µg/mL | > 128 µg/mL | > 128 µg/mL | > 128 µg/mL | > 128 µg/mL | > 128 µg/mL | 2.58 µM | 5.29 µM | 16 µg/mL (≈ 59.6 µM) | 32 µg/mL (≈ 119 µM) | 16 µg/mL (≈ 59.6 µM) |
| COC(=O)N1CCN(c2ccnc3c(O)c([N+](=O)[O-])ccc23)CC1 [Example 26] | 12.5 µM | 11.9 µM | 64 µg/mL (≈ 193 µM) | > 128 µg/mL | > 128 µg/mL | > 128 µg/mL | > 128 µg/mL | 128 µg/mL (≈ 385 µM) | 15.1 µM | 11.4 µM | 16 µg/mL (≈ 48.1 µM) | 64 µg/mL (≈ 193 µM) | 128 µg/mL (≈ 385 µM) |
| CC(=O)N1CCN(c2ccnc3c(O)c([N+](=O)[O-])cc(Cl)c23)CC1 [Example 33, 4-(5-Chloro-8-hydroxy-7-nitroquinolin-4-yl)-1-acetylpiperazine] | 18 µM | 15 µM | > 128 µg/mL | > 128 µg/mL | > 128 µg/mL | > 128 µg/mL | > 128 µg/mL | > 128 µg/mL | 16.9 µM | 50.5 µM | 32 µg/mL (≈ 91.2 µM) | 32 µg/mL (≈ 91.2 µM) | 32 µg/mL (≈ 91.2 µM) |
| COc1ccnc2c(O)c([N+](=O)[O-])cc(Cl)c12 [Example 34, 5-Chloro-4-methoxy-7-nitroquinolin-8-ol] | 12.7 µM | 6.78 µM | 32 µg/mL (≈ 126 µM) | 32 µg/mL (≈ 126 µM) | 32 µg/mL (≈ 126 µM) | 8 µg/mL (≈ 31.4 µM) | 32 µg/mL (≈ 126 µM) | 8 µg/mL (≈ 31.4 µM) | 6.44 µM | 14 µM | 4 µg/mL (≈ 15.7 µM) | 8 µg/mL (≈ 31.4 µM) | 4 µg/mL (≈ 15.7 µM) |
| O=[N+]([O-])c1cc(Cl)c2c(OC3CCCC3)ccnc2c1O [Example 59, 5-Chloro-4-(cyclopentyloxy)-7-nitroquinolin-8-ol] | 1.46 µM | 1.5 µM | > 128 µg/mL | > 128 µg/mL | 128 µg/mL (≈ 415 µM) | 128 µg/mL (≈ 415 µM) | 128 µg/mL (≈ 415 µM) | 128 µg/mL (≈ 415 µM) | 0.78 µM | 1.49 µM | 16 µg/mL (≈ 51.8 µM) | 16 µg/mL (≈ 51.8 µM) | 16 µg/mL (≈ 51.8 µM) |
| O=[N+]([O-])c1cc(Cl)c2c(N3CCNCC3)ccnc2c1O [Example 37, 5-Chloro-7-nitro-4-(piperazin-1-yl)quinolin-8-ol] | > 50 µM | 40.4 µM | > 128 µg/mL | > 128 µg/mL | > 128 µg/mL | > 128 µg/mL | > 128 µg/mL | > 128 µg/mL | > 50 µM | > 50 µM | 128 µg/mL (≈ 415 µM) | > 128 µg/mL | 128 µg/mL (≈ 415 µM) |
| CN(C)CCOc1ccnc2c(O)c([N+](=O)[O-])ccc12 [Example 24, 4-(2-(Dimethylamino)ethoxy)-7-nitroquinolin-8-ol] | 53.6 µM | 49.6 µM | 128 µg/mL (≈ 462 µM) | > 128 µg/mL | 128 µg/mL (≈ 462 µM) | 128 µg/mL (≈ 462 µM) | 128 µg/mL (≈ 462 µM) | 128 µg/mL (≈ 462 µM) | > 100 µM | 48 µM | 128 µg/mL (≈ 462 µM) | 128 µg/mL (≈ 462 µM) | 128 µg/mL (≈ 462 µM) |
| COC(=O)[C@@H]1CCCN1c1ccnc2c(O)c([N+](=O)[O-])ccc12 [Example 28, Methyl (8-hydroxy-7-nitroquinolin-4-yl)-L-prolinate] | 17 µM | 33 µM | 64 µg/mL (≈ 202 µM) | > 128 µg/mL | > 128 µg/mL | > 128 µg/mL | > 128 µg/mL | > 128 µg/mL | 17.3 µM | 42.3 µM | 32 µg/mL (≈ 101 µM) | 32 µg/mL (≈ 101 µM) | > 128 µg/mL |
| O=[N+]([O-])c1cc(Cl)c2c(N3CCCC3)ccnc2c1O [Example 42, 5-Chloro-7-nitro-4-(pyrrolidin-1-yl)quinolin-8-ol] | 25.4 µM | 17.4 µM | > 128 µg/mL | > 128 µg/mL | 128 µg/mL (≈ 436 µM) | > 128 µg/mL | > 128 µg/mL | 128 µg/mL (≈ 436 µM) | 33 µM | 42 µM | 32 µg/mL (≈ 109 µM) | 32 µg/mL (≈ 109 µM) | 32 µg/mL (≈ 109 µM) |
| Cl.O=[N+]([O-])c1cc(Cl)c2c(-c3ccccc3)ccnc2c1O [Example 51, 5-chloro-7-nitro-4-phenylquinolin-8-ol hydrochloride] | 4.25 µM | 1.51 µM | > 128 µg/mL | > 128 µg/mL | > 128 µg/mL | > 128 µg/mL | > 128 µg/mL | > 128 µg/mL | 1.71 µM | 2.17 µM | 1 µg/mL | 2 µg/mL | 1 µg/mL |
| O=[N+]([O-])c1cc(F)c2c(N3CCC(F)(F)CC3)ccnc2c1O [Example 69, 4-(4,4-Difluoropiperidin-1-yl)-5-fluoro-7-nitroquinolin-8-ol] | 2.23 µM | 1.33 µM | > 128 µg/mL | > 128 µg/mL | > 128 µg/mL | > 128 µg/mL | > 128 µg/mL | > 128 µg/mL | 2.67 µM | 4.81 µM | 2 µg/mL (≈ 6.11 µM) | 2 µg/mL (≈ 6.11 µM) | 4 µg/mL (≈ 12.2 µM) |
| O=[N+]([O-])c1cc(Cl)c2c(N3CCC(C(F)(F)F)CC3)ccnc2c1O [Example 39, 5-Chloro-7-nitro-4-(4-(trifluoromethyl)piperidin-1-yl)quinolin-8-ol] | 1.25 µM | 0.43 µM | > 128 µg/mL | > 128 µg/mL | > 128 µg/mL | > 128 µg/mL | > 128 µg/mL | > 128 µg/mL | 1.11 µM | 0.95 µM | 4 µg/mL (≈ 10.6 µM) | 8 µg/mL (≈ 21.3 µM) | 4 µg/mL (≈ 10.6 µM) |
| CN1CCN(c2ccnc3c(O)c([N+](=O)[O-])cc(Cl)c23)CC1 [Example 40] | 11.5 µM | 12.6 µM | 128 µg/mL (≈ 397 µM) | > 128 µg/mL | > 128 µg/mL | 128 µg/mL (≈ 397 µM) | > 128 µg/mL | 64 µg/mL (≈ 198 µM) | 19.1 µM | 24.6 µM | 32 µg/mL (≈ 99.1 µM) | 32 µg/mL (≈ 99.1 µM) | 32 µg/mL (≈ 99.1 µM) |
